We go through 2 molecules from US5456923A, “Method of manufacturing solid dispersion” (priority 1991, dated 1995).

Converted amounts (≈) assume the structure as drawn. Counter-ions that a name gives are not always drawn.

A short description of this data set: physchem. The following applies: jp test solution 2.

Description: Test method: Saturation dissolution method
Test conditions: Constanttemperature bath (25° C.)
Ultracentrifugation: 40000 rpm × 1 hr; the supernatant analyzed by

Take `COC(=O)C1=C(C)NC(C)=C(P2(=O)OCCCO2)C1c1ccccc1[N+](=O)[O-]` (centres unmarked) [Compound A, methyl 2,6-dimethyl-4-(2-nitrophenyl)-5-(2-oxo-1,3,2-dioxaphosphorinan-2-yl)-1,4-dihydropyridine-3-carboxylate]: the solubility at 24 h came to 36.5 µg/mL (≈ 89.4 µM).

For `COC(=O)C1=C(C)NC(C)=C(C(=O)OCCN(C)Cc2ccccc2)C1c1cccc([N+](=O)[O-])c1` (centres unmarked) [nicardipine hydrochloride], the solubility at 24 h is 8.5 µg/mL. This solubility at 24 h is about 4.3-fold lower than that of the molecule before.
